Counter-ions that a name gives are not always drawn.
System: E. coli MG1655
Assay: High-throughput screening of FDA-approved drug library for antibiotic adjuvants (growth inhibition, OD600)
Type: cell-based, Escherichia coli
Conditions: library drug alone, LB medium, 96-well, 8 h static culture at 37°C, relative to PMBN (positive) and DMSO (negative) controls, %, table head prints no unit

Row | SMILES | Growth inhibition, Compound
1 | C/C(=C\C(=O)OCCCCCCCCC(=O)O)C[C@@H]1OC[C@H](C[C@@H]2O[C@H]2[C@@H](C)[C@H](C)O)[C@@H](O)[C@H]1O [Mupirocin] | 83%
2 | CCN1C(=O)C=CC1=O [N-Ethylmaleimide] | 106%
3 | CC1CCc2c(N3CCC(O)CC3)c(F)cc3c(=O)c(C(=O)O)cn1c23 (stereo not drawn) [Nadifloxacin] | 110%
4 | CCn1cc(C(=O)[O-])c(=O)c2ccc(C)nc21.[Na+] [Nalidixic acid sodium salt] | 63%
5 | CCn1cc(C(=O)O)c(=O)c2ccc(C)nc21 [Nalidixic acid] | 74%
6 | CCN[C@@H]1C[C@H](N)[C@@H](O[C@H]2OC(CN)=CC[C@H]2N)[C@H](O)[C@H]1O[C@H]1OC[C@](C)(O)[C@H](NC)[C@H]1O.CCN[C@@H]1C[C@H](N)[C@@H](O[C@H]2OC(CN)=CC[C@H]2N)[C@H](O)[C@H]1O[C@H]1OC[C@](C)(O)[C@H](NC)[C@H]1O.O=S(=O)(O)O.O=S(=O)(O)O.O=S(=O)(O)O.O=S(=O)(O)O.O=S(=O)(O)O [Netilmicin sulfate] | 109%
7 | O=C(Nc1ccc([N+](=O)[O-])cc1Cl)c1cc(Cl)ccc1O [Niclosamide] | 45%
8 | CSCC1CN(/N=C/c2ccc([N+](=O)[O-])o2)C(=O)O1 (stereo not drawn) [Nifuratel] | 108%
9 | O=C(N/N=C/c1ccc([N+](=O)[O-])o1)c1ccc(O)cc1 [Nifuroxazide] | 102%
10 | CC(=O)Oc1ccccc1C(=O)Nc1ncc([N+](=O)[O-])s1 [Nitazoxanide] | 36%
11 | CC(=O)Nc1ncc([N+](=O)[O-])s1 [Nithiamide] | 87%
12 | O=C1CN(/N=C/c2ccc([N+](=O)[O-])o2)C(=O)N1 [Nitrofurantoin] | 98%
13 | O=[N+]([O-])c1ccc(O)c2ncccc12 [Nitroxoline] | 105%
14 | CCn1cc(C(=O)O)c(=O)c2cc(F)c(N3CCNCC3)cc21 [Norfloxacin] | 99%
15 | CCCCCCCCN=c1ccn(CCCCCCCCCCn2ccc(=NCCCCCCCC)cc2)cc1 [Octenidine Dihydrochloride] | 91%
16 | CC1COc2c(N3CCN(C)CC3)c(F)cc3c(=O)c(C(=O)O)cn1c23 (stereo not drawn) [Ofloxacin] | 107%
17 | C[C@@H]1CN(c2c(F)c(F)c3c(=O)c(C(=O)O)cn(C4CC4)c3c2F)C[C@H](C)N1 [Orbifloxacin] | 113%
18 | CCn1cc(C(=O)O)c(=O)c2cc3c(cc21)OCO3 [Oxolinic acid] | 108%
19 | O=C(Nc1cc(Cl)cc(Cl)c1O)c1c(O)c(Cl)cc(Cl)c1Cl [Oxyclozanide] | 52%

Row | SMILES | Growth inhibition, Compound
20 | CN(C)[C@@H]1C(O)=C(C(N)=O)C(=O)[C@@]2(O)C(O)=C3C(=O)c4c(O)cccc4[C@@](C)(O)[C@H]3[C@H](O)[C@@H]12 [Oxytetracycline Dihydrate] | 101%
21 | CN(C)[C@@H]1C(O)=C(C(N)=O)C(=O)[C@@]2(O)C(O)=C3C(=O)c4c(O)cccc4[C@@](C)(O)[C@H]3[C@H](O)[C@@H]12 [Oxytetracycline Hydrochloride] | 106%
22 | CN(C)[C@@H]1C(O)=C(C(N)=O)C(=O)[C@@]2(O)C(O)=C3C(=O)c4c(O)cccc4[C@@](C)(O)[C@H]3[C@H](O)[C@@H]12 [Oxytetracycline] | 66%
23 | CNc1ncc(-c2ccc3c(=O)c(C(=O)O)cn(C4CC4)c3c2C)cc1C [Ozenoxacin] | 106%
24 | NC[C@@H]1O[C@H](O[C@H]2[C@@H](O)[C@H](O[C@@H]3[C@@H](O)[C@H](N)C[C@H](N)[C@H]3O[C@H]3O[C@H](CO)[C@@H](O)[C@H](O)[C@H]3N)O[C@@H]2CO)[C@H](N)[C@@H](O)[C@@H]1O [Paromomycin Sulfate] | 108%
25 | CS(=O)(=O)O.C[C@H]1COc2c(C3(N)CC3)c(F)cc3c(=O)c(C(=O)O)cn1c23 [Pazufloxacin Mesylate] | 109%
26 | CC1(C)S[C@@H]2[C@H](NC(=O)Cc3ccccc3)C(=O)N2[C@H]1C(=O)O [Penicillin G sodium salt] | 38%
27 | CCn1cc(C(=O)O)c(=O)c2cnc(N3CCNCC3)nc21 [Pipemidic acid] | 105%
28 | CCN1CCN(C(=O)N[C@@H](C(=O)N[C@@H]2C(=O)N3[C@@H]2SC(C)(C)[C@@H]3C(=O)O)c2ccccc2)C(=O)C1=O [Piperacillin sodium salt] | 88%
29 | Cc1cc(CC(C)CC(C)(C)C)n(O)c(=O)c1.NCCO (stereo not drawn) [Piroctone olamine] | 54%
30 | CC(C)(C)C(=O)OCOC(=O)[C@@H]1N2C(=O)[C@@H](/N=C/N3CCCCCC3)[C@H]2SC1(C)C [Pivmecillinam hydrochloride] | 72%
31 | Nc1ccc2cc3ccc(N)cc3nc2c1 [Proflavine Hemisulfate] | 54%
32 | Cc1oc(=O)oc1CN1CCN(c2cc3c(cc2F)c(=O)c(C(=O)O)c2n3C(C)S2)CC1 (stereo not drawn) [Prulifloxacin] | 100%
33 | C=C[C@]1(C)C[C@@H](OC(=O)CS[C@@H]2C[C@H]3CC[C@@H](C2)N3C)[C@]2(C)[C@H](C)CC[C@]3(CCC(=O)[C@H]32)[C@@H](C)[C@@H]1O [Retapamulin] | 97%
34 | NC[C@H]1O[C@H](O[C@H]2[C@H](O[C@@H]3O[C@H](CO)[C@@H](O)[C@H]3O)[C@@H](O)[C@H](N)C[C@@H]2N)[C@H](N)[C@@H](O)[C@@H]1O.O=S(=O)(O)O [Ribostamycin sulfate] | 110%
35 | CO[C@H]1/C=C/O[C@@]2(C)Oc3c(C)c(O)c4c(c3C2=O)C2=NC3(CCN(CC(C)C)CC3)NC2=C(NC(=O)/C(C)=C\C=C\[C@H](C)[C@H](O)[C@@H](C)[C@@H](O)[C@@H](C)[C@H](OC(C)=O)[C@@H]1C)C4=O [Rifabutin] | 94%
36 | CO[C@H]1/C=C/O[C@@]2(C)Oc3c(C)c(O)c4c([O-])c(cc(O)c4c3C2=O)NC(=O)/C(C)=C\C=C\[C@H](C)[C@H](O)[C@@H](C)[C@@H](O)[C@@H](C)[C@H](OC(C)=O)[C@@H]1C.[Na+] [Rifamycin sodium salt] | 25%
37 | CO[C@H]1/C=C/O[C@@]2(C)Oc3c(C)c(O)c4c(O)c(c(/C=N/N5CCN(C6CCCC6)CC5)c(O)c4c3C2=O)NC(=O)/C(C)=C\C=C\[C@H](C)[C@H](O)[C@@H](C)[C@@H](O)[C@@H](C)[C@H](OC(C)=O)[C@@H]1C [Rifapentine] | 99%
38 | CO[C@H]1/C=C/O[C@@]2(C)Oc3c(C)c(O)c4c(O)c(c5c(nc6cc(C)ccn65)c4c3C2=O)NC(=O)/C(C)=C\C=C\[C@H](C)[C@H](O)[C@@H](C)[C@@H](O)[C@@H](C)[C@H](OC(C)=O)[C@@H]1C [Rifaximin] | 108%

Row | SMILES | Growth inhibition, Compound
39 | O=C(Nc1ccc(Cl)cc1)c1cc(Br)ccc1O [Salifungin] | 67%
40 | O=C(O)c1cn(-c2ccc(F)cc2)c2cc(N3CCNCC3)c(F)cc2c1=O [Sarafloxacin] | 109%
41 | CN[C@@H]1[C@@H](O)[C@@H](O[C@@H]2[C@@H](O)[C@H](O[C@H]3OC(CN)=CC[C@H]3N)[C@@H](N)C[C@H]2N)OC[C@]1(C)O [Sisomicin Sulfate] | 105%
42 | N[C@@H]1CN(c2c(F)cc3c(=O)c(C(=O)O)cn([C@@H]4C[C@@H]4F)c3c2Cl)CC12CC2.N[C@@H]1CN(c2c(F)cc3c(=O)c(C(=O)O)cn([C@@H]4C[C@@H]4F)c3c2Cl)CC12CC2.O.O.O [Sitafloxacin Hydrate] | 101%
43 | CO/N=C(\C(=O)N[C@@H]1C(=O)N2C(C(=O)O)=C(CSC(=O)c3ccco3)CS[C@H]12)c1csc(N)n1 [Sodium ceftiofur] | 109%
44 | C[C@@H]1CN(c2c(F)c(N)c3c(=O)c(C(=O)O)cn(C4CC4)c3c2F)C[C@H](C)N1 [Sparfloxacin] | 96%
45 | CN[C@@H]1[C@H](O)[C@H](NC)[C@H]2O[C@@]3(O)C(=O)C[C@@H](C)O[C@H]3O[C@@H]2[C@H]1O.Cl.Cl.O.O.O.O.O [Spectinomycin dihydrochloride pentahydrate] | 96%
46 | CN[C@@H]1[C@H](O)[C@H](NC)[C@H]2O[C@@]3(O)C(=O)C[C@@H](C)O[C@H]3O[C@@H]2[C@H]1O.Cl.Cl [Spectinomycin dihydrochloride] | 92%
47 | Cc1cn([C@H]2C=C[C@@H](CO)O2)c(=O)[nH]c1=O [Stavudine] | 27%
48 | [H]/N=C(/N)N[C@H]1[C@H](O)[C@@H](O)[C@H](O[C@@H]2O[C@@H](C)[C@](O)(C=O)[C@H]2O[C@@H]2O[C@@H](CO)[C@H](O)[C@@H](O)[C@@H]2NC)[C@@H](N/C(N)=N\[H])[C@@H]1O [Streptomycin sulfate] | 109%
49 | CC1(C)S[C@@H]2[C@H](NC(=O)C(c3ccccc3)S(=O)(=O)O)C(=O)N2[C@H]1C(=O)O.[Na].[Na] (stereo partly drawn) [Sulbenicillin Sodium] | 90%
50 | CC1(C)S[C@@H]2[C@H](NC(=O)[C@H](N)c3ccccc3)C(=O)N2[C@H]1C(=O)OCOC(=O)[C@@H]1N2C(=O)C[C@H]2S(=O)(=O)C1(C)C [Sultamicillin Tosylate] | 93%
51 | CC1(C)S[C@@H]2[C@H](NC(=O)[C@H](N)c3ccccc3)C(=O)N2[C@H]1C(=O)OCOC(=O)[C@@H]1N2C(=O)C[C@H]2S(=O)(=O)C1(C)C [Sultamicillin] | 106%
52 | OB1OCc2cc(F)ccc21 [Tavaborole] | 91%
53 | C[C@@H](O)[C@H]1C(=O)N2C(C(=O)O)=C(SC3CN(C4=NCCS4)C3)[C@H](C)[C@H]12 [Tebipenem] | 109%
54 | [H]/N=C(/NCCCCC)N/N=C/c1c[nH]c2ccc(OC)cc12 [Tegaserod maleate] | 85%
55 | CS(=O)(=O)c1ccc([C@@H](O)[C@@H](CO)NC(=O)C(Cl)Cl)cc1 [Thiamphenicol] | 66%
56 | CC1(C)S[C@@H]2[C@H](NC(=O)[C@H](C(=O)O)c3ccsc3)C(=O)N2[C@H]1C(=O)O [Ticarcillin disodium] | 86%
57 | CC1(C)S[C@@H]2[C@H](NC(=O)[C@H](C(=O)O)c3ccsc3)C(=O)N2[C@H]1C(=O)O [Ticarcillin sodium] | 86%
